Reference: patent US8501960B2, “Saxagliptin intermediates, saxagliptin polymorphs, and processes for preparation thereof” (Assia Chemical Industries Ltd., priority 2010, dated 2013)

Test: Stability of crystalline compound M and Saxagliptin monohydrate form H-1 on storage, measured by HPLC
Format: physicochemical
Procedure: Unless stated otherwise, the HPLC peak % referred to herein were measured using a UV detection having a wavelength of 220 nm.
Instrumental and Chromatographic Conditions
Instrument: HPLC system equipped with UV detector.
• Flow rate: about 1 mL/min • Injection volume: about 10 μL • Column: Waters XBridge C8, 150 mm×4.6 mm, 3.5 μm • Column temperature: 25° C. • Detector: DAD (UV) at wavelengths 220 nm • Mobile phase: Gradient elution with Solution A and Solution B (see Table 1) • Solution A: Buffer solution. Dissolve in water about 24.0 g of sodium octyl-1-sulfonate in 1000 mL volumetric flask, make up to the volume with water and adjust pH to 3.3 with phosphoric acid. • Solution B: Acetonitrile, HPLC grade
• Stop time: 25 minutes • Post time: 5 minutes • Diluent: Prepare a solution of 25% acetonitrile, 25% methanol, and 50% of the buffer solution (the one that is used in gradient elution). The Following Chemicals (or Equivalent) Should Be Used:
• 1. Blank: Use the diluent. • 2. Sample preparation: Prepare SXG sample solution with concentration of about 1.0 mg/mL prepare in duplicate Procedure
Samples of crystalline compound M and Saxagliptin monohydrate form H-1 were prepared and the amount of Saxagliptin and the amount of cyclic amidine were measured by HPLC at time zero (=time 0). Samples of crystalline compound M and Saxagliptin monohydrate form H-1 were maintained for 2 weeks, 1 month and 2 months, at the conditions described in the following table. Afterwards, the amount of Saxagliptin and the amount of cyclic amidine was measured by HPLC.

SMILES	CA = cyclic amidine (amount by HPLC) (40° C./40% RH, 1 month)	SXG = Saxagliptin (amount by HPLC) (40° C./40% RH, 1 month)	CA = cyclic amidine (amount by HPLC) (40° C./40% RH, 2 months)	SXG = Saxagliptin (amount by HPLC) (40° C./40% RH, 2 months)	CA = cyclic amidine (amount by HPLC) (40° C./40% RH, 2 weeks)	SXG = Saxagliptin (amount by HPLC) (40° C./40% RH, 2 weeks)	CA = cyclic amidine (amount by HPLC) (40° C./40% RH, Time 0)	SXG = Saxagliptin (amount by HPLC) (40° C./40% RH, Time 0)	CA = cyclic amidine (amount by HPLC) (50° C./0% RH, 1 month)	SXG = Saxagliptin (amount by HPLC) (50° C./0% RH, 1 month)	CA = cyclic amidine (amount by HPLC) (50° C./0% RH, 2 months)	SXG = Saxagliptin (amount by HPLC) (50° C./0% RH, 2 months)	CA = cyclic amidine (amount by HPLC) (50° C./0% RH, 2 weeks)	SXG = Saxagliptin (amount by HPLC) (50° C./0% RH, 2 weeks)	CA = cyclic amidine (amount by HPLC) (50° C./0% RH, Time 0)	SXG = Saxagliptin (amount by HPLC) (50° C./0% RH, Time 0)	also measured
CC(C)=N[C@H](C(=O)N1[C@H](C#N)C[C@@H]2C[C@@H]21)C12CC3CC(CC(O)(C3)C1)C2 [crystalline Compound M, (1S,3S,5S)-2-[(2S)-2-propan-2-ylideneamino-2-(3-hydroxy-1-adamantyl)acetyl]-2-azabicyclo[3.1.0]-hexane-3-carbonitrile]	CA = 0.50%	SXG = 99.0%	CA = 0.61%	SXG = 99.0%	CA = 0.53%	SXG = 99.0%	CA = 0.20%	SXG = 99.6%	CA = 0.27%	SXG = 99.4%	CA = 0.31%	SXG = 99.4%	CA = 0.25%	SXG = 99.6%	CA = 0.20%	SXG = 99.6%	chemical stability (compared to Saxagliptin monohydrate form H-1): enhanced chemical stability
N#C[C@@H]1C[C@@H]2C[C@@H]2N1C(=O)[C@@H](N)C12CC3CC(CC(O)(C3)C1)C2 [Saxaglitpin base monohydrate, Form H-1, (1S,3S,5S)-2-((2S)-2-Amino-2-(3-hydroxyadamantan-1-yl)-acetyl)-2-azabicyclo[3.1.0]hexane-3-carbonitrile]	CA = 5.8%	SXG = 86.8%	CA = 11.5%	SXG = 77.4%	CA = 4.0%	SXG = 93.1%	CA = 0.50%	SXG = 98.9%	CA = 1.3%	SXG = 96.9%	CA = 2.1%	SXG = 94.8%	CA = 1.2%	SXG = 97.8%	CA = 0.50%	SXG = 98.9%	RRT1.14 (impurity amount by HPLC) (40° C./40% RH, 1 month): RRT1.14 = 4.1%; RRT1.14 (impurity amount by HPLC) (40° C./40% RH, 2 months): RRT1.14 = 7.7%; RRT1.14 (impurity amount by HPLC) (40° C./40% RH, 2 weeks): RRT1.14 = 2.1%; RRT1.14 (impurity amount by HPLC) (50° C./0% RH, 1 month): RRT1.14 = 1.1%; RRT1.14 (impurity amount by HPLC) (50° C./0% RH, 2 months): RRT1.14 = 2.51%; RRT1.14 (impurity amount by HPLC) (50° C./0% RH, 2 weeks): RRT1.14 = 0.4%
